pIC50: −log10 of the molar value. Read-outs that look alike come from different tables or passages of the source. Non-standard residues stand in square brackets, D forms with d. Residues, ends and D or L forms follow the SMILES beside them. *: point of attachment. AMC = Cc1cc(=O)oc2cc(N*)ccc12; Tle = CC(C)(C)[C@H](N)C(=O)O
Key:
Assay type in all cases: biochemical
[1] = target: T1, DP4 variant E206A (Homo sapiens, UniProt P27487, E206A); assay: Hydrolysis of dipeptide-AMC substrates (fluorescence); details: substrate hydrolysis, 100 mM HEPES-buffer (pH 7.6), T = 30 °C
T1 construct: His(6)-37-766 hDP4 containing fractions were concentrated to 1 ml as described above; His6 (N); made in house; host or cells: Pichia pastoris X-33, vector pPICZα C (secreted)
Procedure: (§1) The reactions were performed in 100 mM HEPES buffer, pH 7.6 at 30°C in a total assay volume of 270 μl by using 96-well plates. […] Fluorescence was detected with a […]luor Plus (TECAN) at an excitation wavelength of 380 nm and an emission wavelength of 465 nm.

[2] = target: T2, DP4 variant N710A (Homo sapiens, UniProt P27487, N710A); assay: as above; details: for Km / kcat: N710A, substrate hydrolysis, 100 mM HEPES-buffer (pH 7.6), T = 30 °C
T2 construct: His(6)-37-766 hDP4 containing fractions were concentrated to 1 ml; made in house; host or cells: Pichia pastoris X-33 (vector pPICZα C, secreted)
Procedure: as §1

[3] = target: T3, DP4 variant R125A (Homo sapiens, UniProt P27487, R125A); assay: as above; details: substrate hydrolysis, 100 mM HEPES-buffer (pH 7.6), T = 30 °C
T3 construct: His(6)-37-766 hDP4 containing fractions were concentrated to 1 ml; made in house; host or cells: Pichia pastoris X-33 (vector pPICZα C, secreted)
Procedure: as §1

[4] = target: T4, DP4 variant E205A (Homo sapiens, UniProt P27487, E205A); assay: as above; details: substrate hydrolysis, 100 mM HEPES-buffer (pH 7.6), T = 30 °C
T4 construct: His(6)-37-766 hDP4 containing fractions were concentrated to 1 ml as described above; His6 (N); made in house; host or cells: Pichia pastoris X-33, vector pPICZα C (secreted)
Procedure: as §1

[5] = target: T5, DP4 variant R125K (Homo sapiens, UniProt P27487, R125K); assay: as above; details: substrate hydrolysis, 100 mM HEPES-buffer (pH 7.6), T = 30 °C
T5 construct: His(6)-37-766 hDP4 containing fractions were concentrated to 1 ml; made in house; host or cells: Pichia pastoris X-33 (vector pPICZα C, secreted)
Procedure: as §1

[6] = target: T6, wild type DP4 (Homo sapiens, UniProt P27487); assay: as above; details: substrate hydrolysis, 100 mM HEPES-buffer (pH 7.6), T = 30 °C
T6 construct: His(6)-37-766 hDP4 containing fractions were concentrated to 1 ml; made in house; host or cells: Pichia pastoris X-33 (vector pPICZα C, secreted)
Procedure: as §1

[7] = target: T7, DP4 variant N710D (Homo sapiens, UniProt P27487, N710D); assay: as above; details: substrate hydrolysis, 100 mM HEPES-buffer (pH 7.6), T = 30 °C
T7 construct: His(6)-37-766 hDP4 containing fractions were concentrated to 1 ml; made in house; host or cells: Pichia pastoris X-33 (vector pPICZα C, secreted)
Procedure: (§2) The reactions were performed in 100 mM HEPES buffer, pH 7.6 at 30°C in a total assay volume of 270 μl by using 96-well plates. […] Fluorescence was detected with a [sequence]luor Plus (TECAN) at an excitation wavelength of 380 nm and an emission wavelength of 465 nm.

[8] = target: T8, DP4 variant N710Q (Homo sapiens, UniProt P27487, N710Q); assay: as above
T8 construct: His(6)-37-766 hDP4 containing fractions were concentrated to 1 ml; made in house; host or cells: Pichia pastoris X-33 (vector pPICZα C, secreted)
Procedure: as §2

[9] = target: T8, DP4 variant N710Q; assay: IC50 determination with substrate Gly-Pro-AMC; details: bounds given in mM, 100 mM HEPES-buffer (pH 7.6), T = 30 °C, substrate Gly-Pro-AMC in the range of Km
Procedure: as §1

[10] = target: T1, DP4 variant E206A; assay: IC50 determination with substrate Gly-Pro-AMC; details: bounds given in mM, 100 mM HEPES-buffer (pH 7.6), T = 30 °C, substrate Gly-Pro-AMC in the range of Km
Procedure: as §1

[11] = target: T2, DP4 variant N710A; assay: IC50 determination with substrate Gly-Pro-AMC; details: bounds given in mM, 100 mM HEPES-buffer (pH 7.6), T = 30 °C, substrate Gly-Pro-AMC in the range of Km
Procedure: as §1

[12] = target: T3, DP4 variant R125A; assay: IC50 determination with substrate Gly-Pro-AMC; details: 100 mM HEPES-buffer (pH 7.6), T = 30 °C, substrate Gly-Pro-AMC in the range of Km
Procedure: as §1

[13] = target: T4, DP4 variant E205A; assay: IC50 determination with substrate Gly-Pro-AMC; details: 100 mM HEPES-buffer (pH 7.6), T = 30 °C, substrate Gly-Pro-AMC in the range of Km
Procedure: as §1

[14] = target: T7, DP4 variant N710D; assay: IC50 determination with substrate Gly-Pro-AMC; details: 100 mM HEPES-buffer (pH 7.6), T = 30 °C, substrate Gly-Pro-AMC in the range of Km
Procedure: as §1

[15] = target: T5, DP4 variant R125K; assay: IC50 determination with substrate Gly-Pro-AMC; details: 100 mM HEPES-buffer (pH 7.6), T = 30 °C, substrate Gly-Pro-AMC in the range of Km
Procedure: as §1

[16] = target: T6, wild type DP4; assay: IC50 determination with substrate Gly-Pro-AMC; details: 100 mM HEPES-buffer (pH 7.6), T = 30 °C, substrate Gly-Pro-AMC in the range of Km
Procedure: as §1

[17] = N710Q, substrate hydrolysis, 100 mM HEPES-buffer (pH 7.6), T = 30 °C

T3 sequence (P27487 37-766 R125A): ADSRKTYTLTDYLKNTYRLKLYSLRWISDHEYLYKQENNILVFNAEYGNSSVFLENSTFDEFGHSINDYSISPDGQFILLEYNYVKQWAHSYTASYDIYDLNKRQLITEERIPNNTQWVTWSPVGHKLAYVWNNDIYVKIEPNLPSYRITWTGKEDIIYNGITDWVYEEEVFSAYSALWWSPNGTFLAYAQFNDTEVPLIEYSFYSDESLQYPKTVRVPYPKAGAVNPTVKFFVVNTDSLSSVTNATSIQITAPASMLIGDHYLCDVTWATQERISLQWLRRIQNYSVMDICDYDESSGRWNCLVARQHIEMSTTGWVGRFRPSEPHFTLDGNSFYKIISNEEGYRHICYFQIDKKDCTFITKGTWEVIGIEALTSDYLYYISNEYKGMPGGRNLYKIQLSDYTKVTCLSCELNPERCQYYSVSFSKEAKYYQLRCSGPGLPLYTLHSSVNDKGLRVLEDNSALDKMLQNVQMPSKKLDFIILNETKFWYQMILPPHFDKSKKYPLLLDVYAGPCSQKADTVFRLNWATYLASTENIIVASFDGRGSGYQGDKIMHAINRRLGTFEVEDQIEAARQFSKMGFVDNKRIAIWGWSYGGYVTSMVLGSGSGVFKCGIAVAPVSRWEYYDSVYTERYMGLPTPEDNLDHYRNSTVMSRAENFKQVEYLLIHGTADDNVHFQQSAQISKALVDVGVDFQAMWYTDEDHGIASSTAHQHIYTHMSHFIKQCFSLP
T8 sequence (P27487 37-766 N710Q): as the sequence (P27487 37-766 R125A) above, with A89R, N674Q counted along it
T6 sequence (P27487 37-766): as the sequence (P27487 37-766 R125A) above, with A89R counted along it
T1 sequence (P27487 37-766 E206A): as the sequence (P27487 37-766 R125A) above, with A89R, E170A counted along it
T2 sequence (P27487 37-766 N710A): as the sequence (P27487 37-766 R125A) above, with A89R, N674A counted along it
T7 sequence (P27487 37-766 N710D): as the sequence (P27487 37-766 R125A) above, with A89R, N674D counted along it
T4 sequence (P27487 37-766 E205A): as the sequence (P27487 37-766 R125A) above, with A89R, E169A counted along it
T5 sequence (P27487 37-766 R125K): as the sequence (P27487 37-766 R125A) above, with A89K counted along it

kcat [1]	Km [2]	kcat [2]	Km [3]	kcat [3]	Km [4]	kcat [4]	Km [5]	kcat [5]	Km [6]	kcat [6]	kcat [7]	kcat [8, 17]	SMILES	other results
No hydrolysis at concentrations < 10 mM	410 µM	(9.4 ± 0.06) · 10^−3 s^−1	710 µM	2.3 ± 0.08 s⁻¹	4700 µM	0.15 ± 0.015 s⁻¹	1500 µM	2.6 ± 0.09 s⁻¹	550 µM	5.7 ± 0.18 s⁻¹	0.05 ± 0.003 s⁻¹	No hydrolysis at concentrations < 10 mM	Cc1cc(=O)oc2cc(NC(=O)[C@H](C)NC(=O)[C@H](C)N)ccc12 [Ala-Ala-AMC] (H-Ala-Ala-{AMC})	Km [1]: No hydrolysis at concentrations < 10 mM; Km [7]: 1800 µM; Km [8, 17]: No hydrolysis at concentrations < 10 mM
0.8 ± 0.05 s⁻¹	1700 µM	0.74 ± 0.03 s⁻¹	37 µM	48 ± 1.0 s⁻¹	240 µM	17 ± 0.2 s⁻¹	38 µM	37 ± 0.5 s⁻¹	19 µM	32 ± 0.9 s⁻¹	19 ± 0.6 s⁻¹	0.23 ± 0.01 s⁻¹	Cc1cc(=O)oc2cc(NC(=O)[C@@H]3CCCN3C(=O)[C@H](C)N)ccc12 [Ala-Pro-AMC] (H-Ala-Pro-{AMC})	Km ([1]; read-out: Km): 3400 µM; Change of Km-value in comparison to the wild type enzyme (decreased) ([2]; N710A vs wild type): 100 fold; Drop of kcat-value in comparison to the wild type enzyme ([2]; N710A vs wild type): ~30 factor; Change of Km-value in comparison to the wild type enzyme (decreased) ([8]; N710Q vs wild type): 100 fold; Drop of kcat-value in comparison to the wild type enzyme ([8]; N710Q vs wild type): ~30 factor
													CC[C@H](C)[C@H](NC(=O)[C@@H]1CCCN1C(=O)[C@@H](N)C(C)(C)C)C(=O)O [t-Bu-Gly-Pro-Ile, t-Butyl-Gly-Pro-Ile] (H-[Tle]-Pro-Ile-OH)	IC50 [9]: > 10 mM; IC50 [10]: > 10 mM; IC50 [11]: > 10 mM; pIC50 [12]: 3.40; pIC50 [13]: 2.77; pIC50 [14]: 3.22; pIC50 [15]: 3.70; pIC50 [16]: 5.44

Reference: article PMC11020753, “Contribution of amino acids in the active site of dipeptidyl peptidase 4 to the catalytic action of the enzyme” (PLOS ONE, 2024)
